Measured values as given in patent US8618289B2 (Ambit Biosciences Corporation, priority 2008, dated 2013).

Experiments:
[1] = tested on: MEK1 phosphorylation in the A375 human melanoma cell line; assay: cells; conditions: A-375, read-out: pMEK IC50
RAF kinases [2] = target: RAF kinases (Homo sapiens, UniProt P15056); assay: biochemical
Experimental: (§1) Competition binding assays used herein were developed, validated and performed as described in Fabian et al., Nature Biotechnology 2005, 23, 329-336. […] The liganded beads were blocked with excess biotin and washed with blocking buffer (SeaBlock (Pierce), 1% BSA, 0.05% Tween 20, 1 mM DTT) to remove unbound ligand and to reduce non-specific binding. […] Test compounds were prepared as 100× stocks in DMSO and rapidly diluted into the aqueous environment. DMSO was added to control assays lacking a test compound. Primary screen interactions were performed in polypropylene 384-well plates in a final volume of 34 μt, while Kd determinations were performed in polystyrene 96-well plates in a final volume of 135 pt. […] The kinase concentration in the eluates was measured by quantitative PCR. Each kinase was tested individually against each compound. Kds were determined using eleven serial threefold dilutions. A selectivity score, which is a quantitative measure of selectivity of a compound against a panel of enzymes, may be calculated for a compound by dividing the number of enzymes for which a compound meets a set criteria, (for example, a binding constant of 100 nM or less), by the total number of enzymes tested. […] (Note, for those compounds tested in a larger kinase panel, as indicated by an asterisk (*) next to the S35 score, the divisor is 321 (i.e. the larger panel contains 321 distinct kinases, excluding mutant variants.)).

RAF kinases [3] = target: RAF kinases (Homo sapiens, UniProt P04049); assay: biochemical
Experimental: as §1

RAF kinases [4] = target: RAF kinases (Homo sapiens, UniProt P15056, V600E); assay: biochemical
Sequence of RAF kinases (Homo sapiens, UniProt P15056, V600E) (P15056 whole entry V600E): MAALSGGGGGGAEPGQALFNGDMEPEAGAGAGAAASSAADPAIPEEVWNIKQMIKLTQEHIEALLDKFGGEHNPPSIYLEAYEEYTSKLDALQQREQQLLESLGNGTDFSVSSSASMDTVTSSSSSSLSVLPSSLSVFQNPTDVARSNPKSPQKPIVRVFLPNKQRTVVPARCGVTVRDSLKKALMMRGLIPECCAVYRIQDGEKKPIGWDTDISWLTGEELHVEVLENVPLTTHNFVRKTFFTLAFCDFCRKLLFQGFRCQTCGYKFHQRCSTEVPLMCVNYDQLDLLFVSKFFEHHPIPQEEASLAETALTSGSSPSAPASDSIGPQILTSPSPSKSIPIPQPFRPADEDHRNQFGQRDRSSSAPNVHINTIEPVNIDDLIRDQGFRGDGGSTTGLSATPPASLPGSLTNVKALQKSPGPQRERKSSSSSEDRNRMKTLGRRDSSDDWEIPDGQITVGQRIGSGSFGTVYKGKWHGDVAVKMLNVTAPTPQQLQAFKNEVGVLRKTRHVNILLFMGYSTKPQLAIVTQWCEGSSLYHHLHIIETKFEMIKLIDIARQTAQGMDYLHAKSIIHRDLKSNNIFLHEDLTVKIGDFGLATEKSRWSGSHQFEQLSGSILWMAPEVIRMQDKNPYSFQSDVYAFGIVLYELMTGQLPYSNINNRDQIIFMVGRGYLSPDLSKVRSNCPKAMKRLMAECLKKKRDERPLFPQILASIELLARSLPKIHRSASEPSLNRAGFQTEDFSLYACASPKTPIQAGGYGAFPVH
Experimental: as §1

A375 cells = assay: cells; conditions: Homo sapiens, A-375, read-out: A375 Viability EC50

Sequence of RAF kinases (Homo sapiens, UniProt P04049) (P04049 whole entry): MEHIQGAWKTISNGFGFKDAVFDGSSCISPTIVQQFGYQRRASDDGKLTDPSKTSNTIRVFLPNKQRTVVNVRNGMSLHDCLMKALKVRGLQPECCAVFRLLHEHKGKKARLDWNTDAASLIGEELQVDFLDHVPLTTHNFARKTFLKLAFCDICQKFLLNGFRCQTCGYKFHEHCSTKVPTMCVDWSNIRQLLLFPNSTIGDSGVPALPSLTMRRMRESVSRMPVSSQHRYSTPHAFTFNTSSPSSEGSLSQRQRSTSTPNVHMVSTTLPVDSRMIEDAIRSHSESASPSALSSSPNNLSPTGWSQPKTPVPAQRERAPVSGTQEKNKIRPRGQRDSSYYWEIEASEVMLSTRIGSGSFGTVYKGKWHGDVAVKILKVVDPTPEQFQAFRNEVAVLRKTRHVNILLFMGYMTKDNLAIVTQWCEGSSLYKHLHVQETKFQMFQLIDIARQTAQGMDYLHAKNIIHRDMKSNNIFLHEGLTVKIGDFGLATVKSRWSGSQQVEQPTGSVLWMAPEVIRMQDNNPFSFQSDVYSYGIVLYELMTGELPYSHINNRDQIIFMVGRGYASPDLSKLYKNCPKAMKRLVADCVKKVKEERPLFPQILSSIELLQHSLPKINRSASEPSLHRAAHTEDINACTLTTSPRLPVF
Sequence of RAF kinases (Homo sapiens, UniProt P15056) (P15056 whole entry): as the sequence (P15056 whole entry V600E) above, with E600V counted along it

Structure (SMILES) | IC50 [1] | Kd (RAF kinases [2]) | Kd (RAF kinases [3]) | Kd (RAF kinases [4]) | EC50 (A375 cells)
COc1cc2ncnc(Oc3cccc(NC(=O)Nc4cc(C(C)(C)F)no4)c3)c2cc1OCCCS(C)(=O)=O [Ex 42, 1-(3-(2-fluoropropan-2-yl)isoxazol-5-yl)-3-(3-(7-methoxy-6-(3-(methylsulfonyl)propoxy)quinazolin-4-yloxy)phenyl)urea] | 250 to 500 nM | < 250 nM | < 250 nM | < 250 nM | 500 to 1000 nM
CCOc1cc2ncnc(Sc3cccc(NC(=O)Nc4cc(C(C)(C)C)on4)c3)c2cc1OC [Ex 50, 1-(5-tert-butylisoxazol-3-yl)-3-[3-(7-ethoxy-6-methoxyquinazolin-4-ylthio)phenyl]urea] | 250 to 500 nM | 500 to 1000 nM | 250 to 500 nM | 250 to 500 nM | > 1000 nM
COc1cc(NC(=O)Nc2cccc(Sc3ncnc4cc(OC)c(OC)cc34)c2)cc(C(F)(F)F)c1 [Ex 115, 1-(3-(6,7-dimethoxyquinazolin-4-ylthio)phenyl)-3-(3-methoxy-5-(trifluoromethyl)phenyl)urea] | > 1000 nM | 500 to 1000 nM | 250 to 500 nM | 250 to 500 nM | > 1000 nM
COc1cc(NC(=O)Nc2cccc(Oc3ncnc4cc(OC)c(OC)cc34)c2)cc(C(F)(F)F)c1 [Ex 116, 1-(3-(6,7-dimethoxyquinazolin-4-yloxy)phenyl)-3-(3-methoxy-5-(trifluoromethyl)phenyl)urea] | > 1000 nM | 500 to 1000 nM | 250 to 500 nM | 250 to 500 nM | > 1000 nM
COCCOc1cc(NC(=O)Nc2cccc(Oc3ncnc4cc(OCCOC)c(OC)cc34)c2)cc(C(F)(F)F)c1 [Ex 117, 1-(3-(6-methoxy-7-(2-methoxyethoxy)quinazolin-4-yloxy)phenyl)-3-(3-(2-methoxyethoxy)-5-(trifluoromethyl)phenyl)urea] | > 1000 nM | 500 to 1000 nM | 250 to 500 nM | 250 to 500 nM | > 1000 nM
COc1cc2ncnc(Oc3cccc(NC(=O)Nc4cc(C(C)(C)C#N)no4)c3)c2cc1OC [Ex 125, 1-(3-(2-cyanopropan-2-yl)isoxazol-5-yl)-3-(3-(6,7-dimethoxyquinazolin-4-yloxy)phenyl)urea] | 250 to 500 nM | 250 to 500 nM | 250 to 500 nM | < 250 nM | > 1000 nM
COc1cc2ncnc(Oc3cccc(NC(=O)Nc4cc(C(C)(C)F)no4)c3)c2cc1OC [Ex 126, 1-(3-(6,7-dimethoxyquinazolin-4-yloxy)phenyl)-3-(3-(2-fluoropropan-2-yl)isoxazol-5-yl)urea] | < 250 nM | 250 to 500 nM | < 250 nM | < 250 nM | 500 to 1000 nM
COc1cc2ncnc(Oc3cccc(NC(=O)Nc4cc(C5(C(F)(F)F)CC5)nn4-c4ccccc4)c3)c2cc1OC [Ex 137, 1-(3-(6,7-dimethoxyquinazolin-4-yloxy)phenyl)-3-(1-phenyl-3-(1-(trifluoromethyl)cyclopropyl)-1H-pyrazol-5-yl)urea] | < 250 nM | > 1000 nM | > 1000 nM | 500 to 1000 nM | 500 to 1000 nM
COc1cc2ncnc(Oc3cccc(NC(=O)Nc4ccc(C(F)(F)F)c(F)c4)c3)c2cc1OC [Ex 150, 1-(3-(6,7-dimethoxyquinazolin-4-yloxy)phenyl)-3-(3-fluoro-4-(trifluoromethyl)phenyl)urea] | > 1000 nM | 500 to 1000 nM | 500 to 1000 nM | 250 to 500 nM | > 1000 nM
COc1cc2ncnc(Oc3cccc(NC(=O)Nc4cc(C(C)(CF)CF)no4)c3)c2cc1OC [Ex 159, 1-[3-(1,3-difluoro-2-methylpropan-2-yl)isoxazol-5-yl]-3-[3-(6,7-dimethoxyquinazolin-4-yloxy]phenyl)urea] | 250 to 500 nM | 500 to 1000 nM | 500 to 1000 nM | 250 to 500 nM | > 1000 nM
COc1cc2ncnc(Oc3cccc(NC(=O)Nc4cc(C5CCCC5)no4)c3)c2cc1OC [Ex 163, 1-(3-cyclopentylisoxazol-5-yl)-3-(3-(6,7-dimethoxyquinazolin-4-yloxy)phenyl)urea] | > 1000 nM | – | 500 to 1000 nM | 250 to 500 nM | > 1000 nM
COc1cc2ncnc(Sc3cccc(NC(=O)Nc4ccc(C(C)(C)C)cc4)c3)c2cc1OC [Ex 174, 1-(4-tert-butylphenyl)-3-(3-(6,7-dimethoxyquinazolin-4-ylthio)phenyl)urea] | > 1000 nM | – | 250 to 500 nM | 250 to 500 nM | > 1000 nM
COc1cc2ncnc(Sc3cccc(NC(=O)Nc4ccc(C(F)(F)F)cc4)c3)c2cc1OC [Ex 184, 1-(3-(6,7-dimethoxyquinazolin-4-ylthio)phenyl)-3-(4-(trifluoromethyl)phenyl)urea] | 250 to 500 nM | 500 to 1000 nM | 250 to 500 nM | 250 to 500 nM | 500 to 1000 nM
COc1cc2ncnc(Sc3cccc(NC(=O)Nc4ccc(C(F)(F)F)c(F)c4)c3)c2cc1OC [Ex 188, 1-(3-(6,7-dimethoxyquinazolin-4-ylthio)phenyl)-3-(3-fluoro-4-(trifluoromethyl)phenyl)urea] | > 1000 nM | – | 500 to 1000 nM | 250 to 500 nM | > 1000 nM
COc1cc2ncnc(Sc3cccc(NC(=O)Nc4cc(CN5CCOCC5)cc(C(F)(F)F)c4)c3)c2cc1OC [Ex 189, 1-(3-(6,7-dimethoxyquinazolin-4-ylthio)phenyl)-3-(3-(morpholinomethyl)-5-(trifluoromethyl)phenyl)urea] | 500 to 1000 nM | – | 500 to 1000 nM | 250 to 500 nM | 500 to 1000 nM
CCOC(C)(C)c1cc(NC(=O)Nc2cccc(Sc3ncnc4cc(OC)c(OC)cc34)c2)n(-c2ccccc2)n1 [Ex 197, 1-[3-(6,7-dimethoxyquinazolin-4-ylthio)phenyl]-3-[3-(2-ethoxypropan-2-yl)-1-phenyl-1H-pyrazol-5-yl]urea] | 250 to 500 nM | > 1000 nM | > 1000 nM | 250 to 500 nM | > 1000 nM
COCCOc1cc2ncnc(Oc3cccc(NC(=O)Nc4cc(-c5ccccc5)on4)c3)c2cc1OC [Ex 203, 1-(3-(6-methoxy-7-(2-methoxyethoxy)quinazolin-4-yloxy)phenyl)-3-(5-phenylisoxazol-3-yl)urea] | > 1000 nM | > 1000 nM | > 1000 nM | > 1000 nM | > 1000 nM
COCCOc1cc2ncnc(Oc3cccc(NC(=O)Nc4cc(C(C)(C)C)nn4C)c3)c2cc1OC [Ex 209, 1-(3-tert-butyl-1-methyl-1H-pyrazol-5-yl)-3-(3-(6-methoxy-7-(2-methoxyethoxy)quinazolin-4-yloxy)phenyl)urea] | 500 to 1000 nM | > 1000 nM | > 1000 nM | 250 to 500 nM | > 1000 nM
COCCOc1cc2ncnc(Oc3cccc(NC(=O)Nc4cc(C(C)(C)C)nn4-c4ccccc4)c3)c2cc1OC [Ex 210, 1-(3-tert-butyl-1-phenyl-1H-pyrazol-5-yl)-3-(3-(6-methoxy-7-(2-methoxyethoxy)quinazolin-4-yloxy)phenyl)urea] | < 250 nM | > 1000 nM | > 1000 nM | > 1000 nM | –
COCCOc1cc2ncnc(Oc3cccc(NC(=O)Nc4cc(C(C)(F)F)no4)c3)c2cc1OC [Ex 211, 1-(3-(1,1-difluoroethyl)isoxazol-5-yl)-3-(3-(6-methoxy-7-(2-methoxyethoxy)quinazolin-4-yloxy)phenyl)urea] | > 1000 nM | 500 to 1000 nM | 250 to 500 nM | 250 to 500 nM | > 1000 nM
COCCOc1cc2ncnc(Oc3cccc(NC(=O)Nc4cc(C(C)(C)COC)on4)c3)c2cc1OC [Ex 217, 1-(5-(1-methoxy-2-methylpropan-2-yl)isoxazol-3-yl)-3-(3-(6-methoxy-7-(2-methoxyethoxy)quinazolin-4-yloxy)phenyl)urea] | 250 to 500 nM | 250 to 500 nM | 250 to 500 nM | < 250 nM | > 1000 nM
COCCOc1cc2ncnc(Oc3cccc(NC(=O)Nc4cc(C(F)(F)F)nn4-c4ccccc4)c3)c2cc1OC [Ex 221, 1-{3-[6-methoxy-7-(2-methoxyethoxy)quinazolin-4-yloxy]phenyl}-3-[1-phenyl-3-(trifluoromethyl)-1H-pyrazol-5-yl]urea] | 250 to 500 nM | > 1000 nM | > 1000 nM | 250 to 500 nM | 500 to 1000 nM
COCCOc1cc2ncnc(Oc3cccc(NC(=O)Nc4ccc(C(F)(F)F)c(F)c4)c3)c2cc1OC [Ex 222, 1-(3-fluoro-4-(trifluoromethyl)phenyl)-3-(3-(6-methoxy-7-(2-methoxyethoxy)quinazolin-4-yloxy)phenyl)urea] | > 1000 nM | 500 to 1000 nM | 250 to 500 nM | 250 to 500 nM | > 1000 nM
COCCOc1cc2ncnc(Sc3cccc(NC(=O)Nc4cc(C(F)(F)F)nn4-c4ccc(F)cc4)c3)c2cc1OC [Ex 242, 1-[1-(4-fluorophenyl)-3-(trifluoromethyl)-1H-pyrazol-5-yl]-3-{3-[6-methoxy-7-(2-methoxyethoxy)quinazolin-4-ylthio]phenyl}urea] | 500 to 1000 nM | > 1000 nM | > 1000 nM | > 1000 nM | > 1000 nM
COc1cc2c(Sc3cccc(NC(=O)Nc4ccc(OC)c(C(F)(F)F)c4)c3)ncnc2cc1OCCN1CCOCC1 [Ex 249, 1-(4-methoxy-3-(trifluoromethyl)phenyl)-3-(3-(6-methoxy-7-(2-morpholinoethoxy)quinazolin-4-ylthio)phenyl)urea] | 500 to 1000 nM | 500 to 1000 nM | 500 to 1000 nM | 250 to 500 nM | > 1000 nM
COCCOc1cc2ncnc(Sc3cccc(NC(=O)Nc4cc(C(C)(C)C)nn4-c4ccc(C)cc4)c3)c2cc1OC [Ex 277, 1-(3-tert-butyl-1-p-tolyl-1H-pyrazol-5-yl)-3-(3-(6-methoxy-7-(2-methoxyethoxy)quinazolin-4-ylthio)phenyl)urea] | < 250 nM | > 1000 nM | > 1000 nM | 250 to 500 nM | –
